Earlier results as cited in patent US20120070506A1, “Animal Treatment” (BOMAC RESEARCH LIMITED, priority 2009, published 2012).

Test system: animals
Settings: veterinary treatment

## CC(C(=O)O)c1ccc2c(c1)[nH]c1ccc(Cl)cc12 (stereo not drawn) [carprofen, 6-chloro-alpha-methyl-9H-carbozole-2-acetic acid]
  known adverse effect: hepatotoxicity (acute hepatic necrosis) or other liver damage
